Measured values reported in patent publication US9907757B2, “Coated particles and pharmaceutical dosage forms” (Lek Pharmaceuticals d.d., priority 2003, dated 2018).

Test: Oxidative degradation of amorphous and polymorphic forms of atorvastatin at 80° C. in air and oxygen (liquid chromatography)
Format: physicochemical
Conditions: hemicalcium salt; for Sensitivity to oxygen and oxidation (conclusion): from 80° C., 3 days, air/oxygen study; for Increase of degradation products %: in respect to reference samples stored at 4° C.
Protocol: The influence of oxygen on occurrence of degradation products of amorphous and four polymorphic forms of atorvastatin was investigated. The samples of amorphous atorvastatin and polymorphic forms I to IV of atorvastatin were exposed at 80° C. in normal (air) and oxygen atmosphere for 3 days. The assay of oxidation products was determined by liquid chromatography. All of the chosen forms of atorvastatin stored at 4° C. were analyzed as the reference samples.

[1] = stored at 80° C. 3 days in normal (air) atmosphere
[2] = stored at 80° C. 3 days in oxygen atmosphere

SMILES	Sensitivity to oxygen and oxidation (conclusion) (listed as amorphous atorvastatin)	Increase of degradation products % [1]	Increase of degradation products % [2]	Sensitivity to oxygen and oxidation (conclusion)
CC(C)c1c(C(=O)Nc2ccccc2)c(-c2ccccc2)c(-c2ccc(F)cc2)n1CC[C@@H](O)C[C@@H](O)CC(=O)O.CC(C)c1c(C(=O)Nc2ccccc2)c(-c2ccccc2)c(-c2ccc(F)cc2)n1CC[C@@H](O)C[C@@H](O)CC(=O)O.CC(C)c1c(C(=O)Nc2ccccc2)c(-c2ccccc2)c(-c2ccc(F)cc2)n1CC[C@@H](O)C[C@@H](O)CC(=O)[O-].CC(C)c1c(C(=O)Nc2ccccc2)c(-c2ccccc2)c(-c2ccc(F)cc2)n1CC[C@@H](O)C[C@@H](O)CC(=O)[O-].[Ca+2] (relative stereo) [Amorphous ATV, (R-(R*,R*))-2-(4-fluorophenyl-beta, delta-dihydroxy-5-(1-methylethyl)-3-phenyl-4-((phenylamino)carbonyl)-1H-pyrrole-1-heptanoic acid hemicalcium salt]	highly sensitive to oxidation	1.04%	3.4%	
CC(C)c1c(C(=O)Nc2ccccc2)c(-c2ccccc2)c(-c2ccc(F)cc2)n1CC[C@@H](O)C[C@@H](O)CC(=O)O.CC(C)c1c(C(=O)Nc2ccccc2)c(-c2ccccc2)c(-c2ccc(F)cc2)n1CC[C@@H](O)C[C@@H](O)CC(=O)O.CC(C)c1c(C(=O)Nc2ccccc2)c(-c2ccccc2)c(-c2ccc(F)cc2)n1CC[C@@H](O)C[C@@H](O)CC(=O)[O-].CC(C)c1c(C(=O)Nc2ccccc2)c(-c2ccccc2)c(-c2ccc(F)cc2)n1CC[C@@H](O)C[C@@H](O)CC(=O)[O-].[Ca+2] (relative stereo) [Crystalline form I, (R-(R*,R*))-2-(4-fluorophenyl-beta, delta-dihydroxy-5-(1-methylethyl)-3-phenyl-4-((phenylamino)carbonyl)-1H-pyrrole-1-heptanoic acid hemicalcium salt]		0.04%	0.07%	stable to oxygen and oxidation
CC(C)c1c(C(=O)Nc2ccccc2)c(-c2ccccc2)c(-c2ccc(F)cc2)n1CC[C@@H](O)C[C@@H](O)CC(=O)O.CC(C)c1c(C(=O)Nc2ccccc2)c(-c2ccccc2)c(-c2ccc(F)cc2)n1CC[C@@H](O)C[C@@H](O)CC(=O)O.CC(C)c1c(C(=O)Nc2ccccc2)c(-c2ccccc2)c(-c2ccc(F)cc2)n1CC[C@@H](O)C[C@@H](O)CC(=O)[O-].CC(C)c1c(C(=O)Nc2ccccc2)c(-c2ccccc2)c(-c2ccc(F)cc2)n1CC[C@@H](O)C[C@@H](O)CC(=O)[O-].[Ca+2] (relative stereo) [Crystalline form II, (R-(R*,R*))-2-(4-fluorophenyl-beta, delta-dihydroxy-5-(1-methylethyl)-3-phenyl-4-((phenylamino)carbonyl)-1H-pyrrole-1-heptanoic acid hemicalcium salt]		0.25%	0.71%	slightly sensitive to oxidation
CC(C)c1c(C(=O)Nc2ccccc2)c(-c2ccccc2)c(-c2ccc(F)cc2)n1CC[C@@H](O)C[C@@H](O)CC(=O)O.CC(C)c1c(C(=O)Nc2ccccc2)c(-c2ccccc2)c(-c2ccc(F)cc2)n1CC[C@@H](O)C[C@@H](O)CC(=O)O.CC(C)c1c(C(=O)Nc2ccccc2)c(-c2ccccc2)c(-c2ccc(F)cc2)n1CC[C@@H](O)C[C@@H](O)CC(=O)[O-].CC(C)c1c(C(=O)Nc2ccccc2)c(-c2ccccc2)c(-c2ccc(F)cc2)n1CC[C@@H](O)C[C@@H](O)CC(=O)[O-].[Ca+2] (relative stereo) [Crystalline form III, (R-(R*,R*))-2-(4-fluorophenyl-beta, delta-dihydroxy-5-(1-methylethyl)-3-phenyl-4-((phenylamino)carbonyl)-1H-pyrrole-1-heptanoic acid hemicalcium salt]		0.11%	0.47%	slightly sensitive to oxidation
CC(C)c1c(C(=O)Nc2ccccc2)c(-c2ccccc2)c(-c2ccc(F)cc2)n1CC[C@@H](O)C[C@@H](O)CC(=O)O.CC(C)c1c(C(=O)Nc2ccccc2)c(-c2ccccc2)c(-c2ccc(F)cc2)n1CC[C@@H](O)C[C@@H](O)CC(=O)O.CC(C)c1c(C(=O)Nc2ccccc2)c(-c2ccccc2)c(-c2ccc(F)cc2)n1CC[C@@H](O)C[C@@H](O)CC(=O)[O-].CC(C)c1c(C(=O)Nc2ccccc2)c(-c2ccccc2)c(-c2ccc(F)cc2)n1CC[C@@H](O)C[C@@H](O)CC(=O)[O-].[Ca+2] (relative stereo) [Crystalline form IV, (R-(R*,R*))-2-(4-fluorophenyl-beta, delta-dihydroxy-5-(1-methylethyl)-3-phenyl-4-((phenylamino)carbonyl)-1H-pyrrole-1-heptanoic acid hemicalcium salt]		1.14%	3.67%	highly sensitive to oxidation
